Reference: patent publication US9533026B2, “Polypeptide compounds for inhibiting angiogenesis and tumor growth” (VasGene Therapeutics, Inc., priority 2004, dated 2017)

B1: GC: EphB4EC deletion variant, globular domain and Cys-rich domain, 6xHis tagged, SEQ ID NO:12 (protein)
chain: MELRVLLCWASLAAALEETLLNTKLETADLKWVTFPQVDGQWEELSGLDEEQHSVRTYEVCEVQRAPGQAHWLRTGWVPRRGAVHVYATLRFTMLECLSLPRAGRSCKETFTVFYYESDADTATALTPAWMENPYIKVDTVAAEHLTRKRPGAEATGKVNVKTLRLGPLSKAGFYLAFQDQGACMALLSLHLFYKKCAQLTVNLTRFPETVPRELVVPVAGSCVVDAVPAPGPSPSLYCREDGQWAEQPVTGCSCAPGFEAAEGNTKCRACAQGTFKPLSGEGSCQPCPANSHSNTIGSAVCQCRVGYFRARTDPRGAPCTTPPSAHHHHHH
modifications: Recombinant B4EC-GC
B2: B2EC: soluble extracellular domain of human Ephrin B2, SEQ ID NO:3 (protein)
chain: MAVRRDSVWKYCWGVLMVLCRTAISKSIVLEPIYWNSSNSKFLPGQGLVLYPQIGDKLDIICPKVDSKTVGQYEYYKVYMVDKDQADRCTIKKENTPLLNCAKPDQDIKFTIKFQEFSPNLWGLEFQKNKDYYIISTSNGSLEGLDNQEGGVCQTRAMKILMKVGQDASSAGSTRNKDPTRRPELEAGTNGRSSTTSPFVKPNPGSSTDGNSAGHSGNNILGSEVGSHHHHHH
modifications: Recombinant B2EC protein
B3: GCF1: EphB4EC variant, globular, Cys-rich and the first FNIII domain, 6xHis tagged, SEQ ID NO:13 (protein)
chain: MELRVLLCWASLAAALEETLLNTKLETADLKWVTFPQVDGQWEELSGLDEEQHSVRTYEVCEVQRAPGQAHWLRTGWVPRRGAVHVYATLRFTMLECLSLPRAGRSCKETFTVFYYESDADTATALTPAWMENPYIKVDTVAAEHLTRKRPGAEATGKVNVKTLRLGPLSKAGFYLAFQDQGACMALLSLHLFYKKCAQLTVNLTRFPETVPRELVVPVAGSCVVDAVPAPGPSPSLYCREDGQWAEQPVTGCSCAPGFAEGNTKCRACAQGTFKPLSGEGSCQPCPANSHSNTIGSAVCQCRVGYFRARTDPRGAPCTTPPSAPRSVVSRLNGSSLHLEWSAPLESGGREDLTYALRCRECRPGGSCAPCGGDLTFDPGPRDLVEPWVVVRGLRPDFTYTFEVTALNGVSSLATGPVPFEPVNVHHHHHH
modifications: Recombinant GCF

Legend:
EphB4 = test: EGF regulation of EphB4 in SCC15 cells with kinase inhibitors (Western blot); assay type: cell-based, human; conditions: for EGF stimulated induction of EphB4: serum-starved SCC15, 10 ng/ml EGF, 24 h; for basal levels of EphB4: serum-starved SCC15, 24 h
Procedure: B) SCC15 cells were serum-starved for 24 h prior to an additional 24 incubation as indicated with or without EGF (10 ng/ml), 3 μM U73122, or 5 μM SH-5, 5 μM SP600125, […] LY294002, - - μM PD098095 or 5 μM SB203580. N/A indicates cultures that received equal volume of diluent (DMSO) only. Cell lysates were subjected to Western Blot with EphB4 monoclonal antibody. β-actin signal serves as control of protein loading and transfer.

HUVEC = test: Endothelial cell tube (cord) formation on Matrigel; assay type: cell-based, human
Procedure: Cord formation assay of HUVEC in Matrigel™ (upper row). Cells in exponential growth phase were treated overnight with the indicated concentrations of EphB4 extracellular domain (ECD) prior to plating on Matrigel™. Cells were trypsinized and plated (1×10^5 cells/well) in a 24-well plate containing 0.5 ml Matrigel™. Shown are representative 20× phase contrast fields of cord formation after 8 hr plating on Matrigel™ in the continued presence of the test compounds as shown. Original magnification 200×. KS-SLK cells treated in a similar manner (middle row) in a cord formation assay on Matrigel™. […] After 7 days the plugs were removed, sectioned and stained with H&E to visualize cells migrating into the matrix.
Matrigel (60 μl of 10 mg/ml; Collaborative Lab #35423) is placed in each well of an ice-cold 96-well plate. The plate is allowed to sit at room temperature for 15 minutes then incubated at 37° C. for 30 minutes to permit the matrigel to polymerize. In the mean time, HUVECs are prepared in EGM-2 (Clonetic #CC3162) at a concentration of 2×10^5 cells/ml. The test compound is prepared at 2× the desired concentration (5 concentration levels) in the same medium. Cells (500 μl) and 2× drug (500 μl) is mixed and 200 μl of this suspension are placed in duplicate on the polymerized matrigel. After 24 h incubation, triplicate pictures are taken for each concentration using a Bioquant Image Analysis system. Drug effect (IC50) is assessed compared to untreated controls by measuring the length of cords formed and number of junctions.
Matrigel (60 μl of 10 mg/ml; Collaborative Lab, Cat. No. 35423) was placed in each well of an ice-cold 96-well plate. The plate was allowed to sit at room temperature for 15 minutes then incubated at 37° C. for 30 minutes to permit Matrigel to polymerize. In the mean time, human umbilical vein endothelial cells were prepared in EGM-2 (Clonetic, Cat. No. CC3162) at a concentration of 2×10^5 cells/ml. The test protein was prepared at 2× the desired concentration (5 concentration levels) in the same medium. Cells (500 μl) and 2× protein (500 μl) were mixed and 200 μl of this suspension were placed in duplicate on the polymerized Matrigel. After 24 h incubation, triplicate pictures were taken for each concentration using a Bioquant Image Analysis system. Protein addition effect (IC50) was assessed compared to untreated controls by measuring the length of cords formed and number of junctions.

human endothelial cells = test: Endothelial cell chemotaxis / migration (Boyden chamber); assay type: cell-based; conditions: umbilical cord and hepatic AECs or VECs; growth factor stimuli
Procedure: Migration is assessed using the 48-well Boyden chamber and 8 μm pore size collagen-coated (10 μg/ml rat tail collagen; Collaborative Laboratories) polycarbonate filters (Osmonics, Inc.). The bottom chamber wells receive 27-29 μl of DMEM medium alone (baseline) or medium containing chemo-attractant (bFGF, VEGF or Swiss 3T3 cell conditioned medium). The top chambers receive 45 μl of HUVEC cell suspension (1×10^6 cells/ml) prepared in DMEM+1% BSA with or without test compound. After 5 h incubation at 37° C., the membrane is rinsed in PBS, fixed and stained in Diff-Quick solutions. The filter is placed on a glass slide with the migrated cells facing down and cells on top are removed using a Kimwipe. The testing is performed in 4-6 replicates and five fields are counted from each well. Negative unstimulated control values are subtracted from stimulated control and drug treated values and data is plotted as mean migrated cell±S.D. IC50 is calculated from the plotted data.
Chemotaxis of HUVECs to VEGF was assessed using a modified Boyden chamber, transwell membrane filter inserts in 24 well plates, 6.5 mm diam, 8 μm pore size, 10 μm thick matrigel coated, polycarbonate membranes (BD Biosciences). The cell suspensions of HUVECs (2×10^5 cells/ml) in 200 μl of EBM were seeded in the upper chamber and the soluble EphB4 protein were added simultaneously with stimulant (VEGF or bFGF) to the lower compartment of the chamber and their migration across a polycarbonate filter in response to 10-20 ng/ml of VEGF with or without 100 nM-1 μM test compound was investigated. After incubation for 4-24 h at 37° C., the upper surface of the filter was scraped with swab and filters were fixed and stained with Diff Quick. Ten random fields at 200× mag were counted and the results expressed as mean # per field. Negative unstimulated control values were subtracted from stimulated control and protein treated sample values and the data was plotted as mean migrated cell±S.D. IC50 was calculated from the plotted data.

EphB4 receptor = test: Cell-based EphB4 tyrosine kinase assay in PC3 cells; set-up: species or system human; conditions: Ephrin B2-Fc ligand preincubated with protein
Procedure: All four proteins were also tested for their ability to block ligand-dependent dimerization and activation of Eph B4 receptor kinase in PC3 cells. The PC3 human prostate cancer cell line is known to express elevated levels of human Eph B4. Stimulation of PC3 cells with Ephrin B2 IgG Fc fusion protein leads to a rapid induction of tyrosine phosphorylation of the receptor. However, preincubation of the ligand with GCF2, GCF1 or GC, but not CF2 proteins suppresses subsequent EphB4 autophosphorylation.
The human prostate carcinoma cell line PC3 cells were maintained in RPMI medium with 10% dialyzed fetal calf serum and 1% penicillin/streptomycin/neomycin antibiotics mix. Cells were maintained at 37° C. in a humidified atmosphere of 5% CO2/95% air. Typically, cells were grown in 60 mm dishes until confluency and were either treated with mouse Ephrin B2-Fc fusion at 1 μg/ml in RPMI for 10 min to activate EphB4 receptor or plain medium as a control. To study the effect of different derivatives of soluble EphB4 ECD proteins on EphB4 receptor activation, three sets of cells were used. In the first set, cells were treated with various proteins (5 proteins; GC, GCF1, GCF2, GCF2-F, CF2) at 5 μg/ml for 20 min. In the second set of cells, prior to application, proteins were premixed with ephrinB2-Fc at 1:5 (EphB4 protein:B2-Fc) molar ratio, incubated for 20 min and applied on cells for 10 min. In the third set of cells, cells were first treated with the proteins for 20 min at 5 μg/ml, media was replaced with fresh media containing 1 μg/ml of EphrinB2-Fc and incubated for another 10 min.
After the stimulation, cells were immediately harvested with protein extraction buffer containing 20 mM Tris-HCl, pH 7.4, 150 mM NaCl, 1% (v/v) Triton X100, 1 mM EDTA, 1 mM PMSF, 1 mM Sodium vanadate. Protein extracts were clarified by centrifugation at 14,000 rpm for 20 min at 4° C. Clarified protein samples were incubated overnight with protein A/G coupled agarose beads pre-coated with anti-EphB4 monoclonal antibodies. The IP complexes were washed twice with the same extraction buffer containing 0.1% Triton X100. The immunoprecipitated proteins were solubilized in 1×SDS-PAGE sample loading buffer and separated on 10% SDS-PAGE. For EphB4 receptor activation studies, electroblotted membrane was probed with anti-pTyr specific antibody 4G10 at 1:1000 dilution followed by Protein G-HRP conjugate at 1:5000 dilutions.

EphrinB2 = biological target: T1, EphrinB2 (Homo sapiens, UniProt P52799); test: Ephrin B2-AP binding to immobilized EphB4EC proteins; conditions: B4 proteins immobilized on Ni2+-resin or nitrocellulose
T1 construct: protein fusion of Ephrin B2 ectodomain with placental alkaline phosphatase
Procedure: 10 μl of Ni-NTA-Agarose were incubated in microcentrifuge tubes with 50 μl of indicated amount of B4ECv3 diluted in binding buffer BB (20 mM Tris-HCl, 0.15 M NaCl, 0.1% bovine serum albumin pH 8) After incubation for 30 min on shaking platform, Ni-NTA beads were washed twice with 1.4 ml of BB, followed by application of 50 μl of B2-AP in the final concentration of 50 nM. Binding was performed for 30 min on shaking platform, and then tubes were centrifuged and washed one time with 1.4 ml of BB. Amount of precipitated AP was measured colorimetrically after application of PNPP.
To confirm ability of the purified recombinant proteins to bind Ephrin B2, they were tested in an in vitro binding assay. As expected, GC, GCF1 and GCF2, but not CF2 are binding the cognate ligand Ephrin B2 as confirmed by interaction between Ephrin B2-alkaline phosphatase (Ephrin B2-AP) fusion protein with the B4 proteins immobilized on Ni^2+-resin or on nitrocellulose membrane (FIG. 17).

T1 sequence (P52799 28-229 limits assumed): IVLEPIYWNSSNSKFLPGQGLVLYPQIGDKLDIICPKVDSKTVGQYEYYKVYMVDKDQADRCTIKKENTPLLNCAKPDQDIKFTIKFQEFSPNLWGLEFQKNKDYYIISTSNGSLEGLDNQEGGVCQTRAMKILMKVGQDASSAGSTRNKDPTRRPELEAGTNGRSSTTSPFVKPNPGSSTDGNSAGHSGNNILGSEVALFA

Molecule | EGF stimulated induction of EphB4 (EphB4) | basal levels of EphB4 (EphB4) | other results
CCCCCCCCCCCCCCCCCCOC[C@H](COP(=O)(O)O[C@H]1[C@H](O)[C@@H](O)[C@H](O)C[C@H]1OC)OC [SH-5] | blocked | reduced | –
B2EC-FC: Ephrin B2 extracellular domain fused to human IgG1 Fc fragment, SEQ ID NO:5 | – | – | endothelial cell tube / tubule / cord formation (HUVEC): inhibition; chemotaxis of human endothelial cells (human endothelial cells): blocked chemotaxis
COc1cccc(-c2cc(=O)c3ccccc3o2)c1N [PD098095] | no discernible effect | reduced | –
COc1ccc2c(c1)CC[C@@H]1[C@@H]2CC[C@]2(C)[C@@H](NCCCCCCN3C(=O)C=CC3=O)CC[C@@H]12 [U73122] | blocked | reduced | –
C[S+]([O-])c1ccc(-c2nc(-c3ccncc3)c(-c3ccc(F)cc3)[nH]2)cc1 (centres unmarked) [SB203580] | – | increased | –
B1 | – | – | EphB4 autophosphorylation (EphB4 receptor): suppresses; binding the cognate ligand Ephrin B2 (EphrinB2): binding
B2 | – | – | chemotaxis of human endothelial cells (human endothelial cells): blocked chemotaxis
B3 | – | – | EphB4 autophosphorylation (EphB4 receptor): suppresses; binding the cognate ligand Ephrin B2 (EphrinB2): binding
